Measurements from patent US20260297060A1, “COMPOUNDS FOR THE DEGRADATION OF MUTANT BRAF” (C4 THERAPEUTICS, INC., priority 2023, published 2026).
Read-outs that look alike come from different tables or passages of the source.

What was measured:
[1] = Example 7 pharmacokinetics assay for efficacy study (plasma, liver); format: in vivo, BALB/c nude mice; conditions: mouse, po, 100 mg/kg, p.o., QD × 14 days
Experimental: (§1) For efficacy study, agents were tested in the A375 human melanoma xenografts. Compound 118, Compound 156, and Compound 180 were administered to BALB/c nude mice bearing A375 xenografts from day 0 and dosed p.o. twice per day (BID). Compound 141 was administered from day 0 and dosed p.o. twice per day (BID) or dosed p.o. daily (QD) from day 1. Compound 141, Compound 118, Compound 156, and Compound 180 were dosed at 10 mg/kg for 14 days. The known BRAF inhibitor Dabrafenib was used as a positive control. Dabrafenib was administered from day 1 and dosed p.o. daily (QD) for 14 days and dosed at 100 mg/kg.
(§2) The plasma samples were collected at predetermined time points for PK analysis. The mice were euthanized at predetermined time points post the treatment. The blood samples were collected into the 1.5 mL Eppendorf tubes containing 15 μL of 0.5 M EDTA-K2. And then the anticoagulant blood samples were centrifuged at 2,500 g at 4° C. for 15 minutes. The plasma samples were separated into 2 aliquots. The 1st was used for PK analysis, and the 2nd served as backup. The samples were stored at −80° C. before bioanalysis.
(§3) Liver samples were collected at predetermined time points for PK analysis. The left lobe of the liver was dissected out and split into 2 parts. The 1st part was used for PK analysis and the 2nd part served as the backup for the study. The samples were transferred into pre-labeled tubes and quickly froze in liquid nitrogen within 2 minutes after dissection. The samples were stored at −80° C. before bioanalysis.
The harvested plasma and liver samples were processed for pharmacokinetics analysis by LC-MS/MS with a concentration range of 0.500~500 ng/mL for Dabrafenib in plasma and liver homogenate, 20.0~20,000 ng/mL for Compound 141, Compound 180 and Compound 118 in plasma and liver, 10.0~10,000 ng/mL for Compound 156 in plasma and liver.

[2] = Pharmacokinetics in female BALB/c nude mice bearing A375 xenografts, 1 day dosing (PK and PD study): plasma, tumor and brain concentrations, AUC; format: in vivo; conditions: 100 mg/kg p.o. QD × 1 day; for Mean Concentration in Brain ± SEM / Mean Concentration in Plasma ± SEM: BQL: below the lower limit of quantitation
Source text: The concentrations of Dabrafenib, Compound 26 and Compound 141 in the treatment of female BALB/c nude mice bearing A375 xenografts are shown in Table 62-Table 72 and FIG. 52-FIG. 73.

[3] = tested on: A375 human melanoma xenografts; experiment: Example 7 efficacy study in A375 human melanoma xenografts (tumor volume, T/C, TGI); format: in vivo, BALB/c nude mice; conditions: 100 mg/kg, p.o., QD × 14 days
Experimental: as §1
The A375 tumor cells were maintained in vitro in DMEM medium supplemented with […] and 1% Penicillin-Streptomycin at 37° C. in an atmosphere of 5% CO2 in air. The tumor cells were routinely subcultured twice weekly. The cells growing in an exponential growth phase were harvested and counted for tumor inoculation.
Each mouse was inoculated subcutaneously at the right flank with A375 tumor cells (5×10^6) in 0.2 mL of PBS with Matrigel (PBS: Matrigel=1:1) supplemented for tumor development. Animals were grouped when the average tumor volume reached 246 mm^3 for efficacy study and 390 mm^3 for PKPD study on day 17 after tumor inoculation. The test articles administration and the animal numbers in each group are shown in the above experimental tables.
Prior to the onset of drug treatment, mice were measured for tumor size in two dimensions using a caliper, and the tumor volume (mm^3) was calculated using formula V=0.5 a×b^2 where a and b are the long and short diameters of the tumor in mm, respectively. Mice were randomized into different treatment groups based on the tumor volume.
The major endpoint was to see if the tumor growth could be delayed or mice could be cured. The tumor size was then used for calculations of T/C value. The T/C value (in percent) is an indication of antitumor effectiveness; T and C are the mean volumes of the treated and control groups, respectively on specified day.
TGI was calculated for each group using the formula: TGI (%)=[1−(Ti−T0)/(Ci−C0)]×100; Ti is the average tumor volume of a treatment group on a given day, T0 is the average tumor volume of the treatment group on the day of treatment start, Ci is the average tumor volume of the vehicle control group on the same day with Ti, and C0 is the average tumor volume of the vehicle group on the day of treatment start.

[4] = Example 8 pharmacokinetics assay for efficacy study (plasma, liver); format: in vivo, BALB/c nude mice; conditions: mouse, po, 35 mg/kg, p.o., QD × 21 days
Experimental: For efficacy study, agents were tested in the A375 human melanoma xenografts model. Compound 8, Compound 26, and Compound 38 were administered to BALB/c nude mice bearing A375 xenografts from day 0 and dosed p.o. twice per day (BID). Compound 8 and Compound 26 were dosed at 10 mg/kg for 21 days. Compound 38 was dosed at 10 mg/kg for 10 days. The known BRAF inhibitor encorafenib was used as a positive control. encorafenib was administered from day 1 and dosed p.o. daily (QD) for 21 days and dosed at 35 mg/kg.
as §2, with “analysis. For non-termination plasma collection, blood samples were collected into the 1.5 mL Eppendorf tubes containing 3 μL of 0.5 M EDTA-K2. For termination plasma collection, the” for “analysis. The”, “the treatment and the” for “the treatment. The”
as §3
The harvested plasma and liver samples were processed for pharmacokinetics analysis by LC-MS/MS with a concentration range of 2.0~2000 ng/mL for encorafenib in plasma and liver homogenate, 10.0-10,000 ng/mL for Compound 8 and Compound 38 in plasma and liver homogenate, 20.0~20,000 ng/mL for Compound 26 in plasma and liver homogenate.

[5] = liver, read-out: Concentration in Liver (mean ± SEM)
[6] = plasma, read-out: Concentration in Plasma (mean ± SEM)
[7] = mouse, brain, po, 100 mg/kg, read-out: Mean Concentration in Brain ± SEM
[8] = mouse, plasma, po, 100 mg/kg, read-out: Mean Concentration in Plasma ± SEM
[9] = mouse, tumor, po, 100 mg/kg, read-out: Mean Concentration in Tumor ± SEM

Structure (SMILES): CC(C)(C)c1nc(-c2cccc(NS(=O)(=O)c3c(F)cccc3F)c2F)c(-c2ccnc(N)n2)s1 [Dabrafenib, dabrafenib, reference compound]
- concentration at 6 h [1, 5]: 195 ± 32.1 ng/g
- concentration at 6 h [1, 6]: 80.5 ± 17.3 ng/mL
- Mean Concentration in Brain ± SEM ([2]; 10 h): BQL^a
- Mean Concentration in Brain ± SEM ([2]; 24 h): BQL
- Mean Concentration in Plasma ± SEM ([2]; 36 h): BQL
- Mean Concentration in Plasma ± SEM ([2]; 48 h): BQL
- concentration at 1 h [2, 7]: 1040 ± 349 ng/g
- concentration at 4 h [2, 7]: 6.13 ng/g
- concentration at 48 h ([2]; mouse, brain, po, 100 mg/kg, 48 h, read-out: Mean Concentration in Brain ± SEM): 15.2 ng/g
- AUC at 24 h ([2]; mouse, brain, po, read-out: Brain AUC at 24 hours, Average): 1580 ng·h/mL
- concentration at 0.25 h ([2]; mouse, plasma, po, 100 mg/kg, 0.25 h, read-out: Mean Concentration in Plasma ± SEM): 62200 ± 10900 ng/mL
- concentration at 0.5 h ([2]; mouse, plasma, po, 100 mg/kg, 0.5 h, read-out: Mean Concentration in Plasma ± SEM): 44700 ± 11600 ng/mL
- concentration at 1 h [2, 8]: 7490 ± 1360 ng/mL
- concentration at 2 h ([2]; mouse, plasma, po, 100 mg/kg, 2 h, read-out: Mean Concentration in Plasma ± SEM): 844 ± 198 ng/mL
- concentration at 4 h [2, 8]: 110 ± 37.6 ng/mL
- concentration at 8 h ([2]; mouse, plasma, po, 100 mg/kg, 8 h, read-out: Mean Concentration in Plasma ± SEM): 55.6 ± 15.5 ng/mL
- concentration at 10 h ([2]; mouse, plasma, po, 100 mg/kg, 10 h, read-out: Mean Concentration in Plasma ± SEM): 25.9 ± 2.09 ng/mL
- concentration at 24 h ([2]; mouse, plasma, po, 100 mg/kg, 24 h, read-out: Mean Concentration in Plasma ± SEM): 0.616 ng/mL
- AUC at 24 h ([2]; mouse, plasma, po, read-out: Plasma AUC at 24 hours, Average): 32100 ng·h/mL
- concentration at 1 h [2, 9]: 8660 ± 4660 ng/g
- concentration at 4 h [2, 9]: 442 ± 257 ng/g
- concentration at 10 h ([2]; mouse, tumor, po, 100 mg/kg, 10 h, read-out: Mean Concentration in Tumor ± SEM): 18 ± 1.88 ng/g
- concentration at 24 h ([2]; mouse, tumor, po, 100 mg/kg, 24 h, read-out: Mean Concentration in Tumor ± SEM): 253 ng/g
- concentration at 48 h ([2]; mouse, tumor, po, 100 mg/kg, 48 h, read-out: Mean Concentration in Tumor ± SEM): 4.66 ng/g
- AUC at 24 h ([2]; mouse, tumor, po, read-out: Tumor AUC at 24 hours, Average): 1680 ng·h/mL
- T/C ([3]; PG-D14): 55.8%
- TGI ([3]; PG-D14): 54.3%
- Tumor Size on PG-D14 (mean ± SEM) ([3]; PG-D14): 741 ± 40 mm^3
- Tumor Volume (mean ± SEM) ([3]; day 0): 246 ± 10 mm^3
- Tumor Volume (mean ± SEM) ([3]; day 3): 394 ± 20 mm^3
- Tumor Volume (mean ± SEM) ([3]; day 7): 515 ± 30 mm^3
- Tumor Volume (mean ± SEM) ([3]; day 10): 608 ± 21 mm^3
- Tumor Volume (mean ± SEM) ([3]; day 14): 741 ± 40 mm^3

Structure (SMILES): COC(=O)N[C@@H](C)CNc1nccc(-c2cn(C(C)C)nc2-c2cc(Cl)cc(NS(C)(=O)=O)c2F)n1 [Encorafenib, encorafenib, reference compound]
- concentration at 6 h [4, 5]: 186 ± 87.2 ng/g
- concentration at 6 h [4, 6]: 336 ± 150 ng/mL
